Measured values as given in patent US7728012B2, “Carboxamide compounds and their use as calpain inhibitors” (Abbott GmbH & Co. KG, priority 2006, dated 2010).

Tests used:
Type in all cases: biochemical
[1] = target: T1, cathepsin L isolated from human liver (Homo sapiens, UniProt P07711); assay: Cathepsin L kinetic fluorescence enzyme inhibition assay; details: selectivity ratio versus calpain I
T1 construct: cathepsin L—isolated from human liver; purchased Calbiochem 219402; host or cells: human liver (tissue isolate)
Experimental: (§1) The following solutions and buffers were employed: • HBS (for 40 ml): 800 μl M HEPES; 2.16 ml 100 mM KCl; 4.8 ml 1M NaCl; 3.59 ml 5% glucose; 60 μl μM MgSO4; 400 μl 100 mM Na pyruvate, 28.19 ml water; pH 7.2-7.5. • lysis buffer (for 20 ml): 400 μl M Tris pH 8.2; 2.74 ml 1M NaCl; 520 μl 0.5M EDTA; 2 ml 10% triton X-100; 0.8 ml (=1:25) CompletePlus (1 tablet/2 ml H2O); 200 μl 100 mM Pefabloc; 13.34 ml water, pH 8.2. • TBST (10×) (for 1 l): 100 mM Tris (12.1 g); 1.5M NaCl (87 g); 1% Tween 20 (10 g), adjusted to pH 8. I Enzyme Inhibition In Vitro: • Testing for blockade of the corresponding enzymic activities was carried out by means of kinetic fluorescence assays (excitation 390 nm, emission 460 nm). • Apparent Ki values were calculated from the experimentally determined IC50 values by the Cheng-Prussoff relation assuming a reversible competitive enzyme inhibition. The Km values of the substrates used under the assay conditions indicated above were: 90 μM (Z-Phe-Arg-AMC, cathepsin B), 10 μM (Z-Gly-Pro-Arg-AMC, cathepsin K), 2 μM (Z-Phe-Arg-AMC, cathepsin L), and 30 μM (Z-Val-Val-Arg-AMC, cathepsin S). • The indicated Ki values are averages of the inhibition constants calculated on the basis of 2 to 4 independent dose-effect plots.
(§2) The following assays were used: • 1. Calpain I: • 20 nM calpain-I—isolated from human erythrocytes (Calbiochem #208713), 100 μM Suc-Leu-Tyr-AMC (Bachem #1-1355) as substrate in buffer with 62 mM imidazole, 0.3 mM CaCl2, 0.10% CHAPS, 0.05% BSA, 1 mM DTT at pH 7.3 and room temperature. • 2. Cathepsin B: • 0.25 nM cathepsin B—isolated from human liver (Calbiochem #219362), 100 μM Z-Phe-Arg-AMC (Bachem #I-1160) as substrate 50 mM MES, 2 mM EDTA, 0.05% Brij 35, 2.5 mM L-cysteine, pH 6.0, room temperature. • 3. Cathepsin K: • 3 nM cathepsin K—activated from recombinant human procathepsin K from E. coli (Calbiochem #342001), 10 μM Z-Gly-Pro-Arg-AMC (Biomol #P-142) as substrate in 50 mM MES, 2 mM EDTA, 0.05% Brij 35, 2.5 mM L-cysteine, pH 6.0, room temperature. • 4. Cathepsin L: • 1 nM cathepsin L—isolated from human liver (Calbiochem #219402), 2 μM Z-Phe-Arg-AMC (Bachem #1-1160) as substrate in 50 mM MES, 2 mM EDTA, 0.05% Brij 35, 2.5 mM L-cysteine, pH 6.0, room temperature. • 5. Cathepsin S: • 0.5 nM recombinant human cathepsin S from E. coli (Calbiochem #219343), 20 μM Z-Val-Val-Arg-AMC (Bachem #1-1540) as substrate in 50 mM MES, 2 mM EDTA, 0.05% Brij 35, 2.5 mM L-cysteine, pH 6.0, room temperature. • The results of the in vitro determination are indicated in Table 1. The following abbreviations are used in Table 1: • The “Calpain activity” column, ++ stands for a calpain Ki (Ki(calpain)) of ≦40 nM and + means: 40 nM<Ki(Calpain)≦100 nM. • The “Sel. cat. B” column indicates the Ki(cathepsin B)/Ki(calpain) ratio. In this connection, ++ means a Ki(cathepsin B)/Ki(calpain) ratio of ≧30 and + means 10≦Ki(cathepsin B)/Ki(calpain)<30. • The “Sel. cat. K” column indicates the Ki(cathepsin K)/Ki(calpain) ratio. In this connection, ++ means a Ki(cathepsin K)/Ki(calpain) ratio of ≧30 and + means 10≦Ki(cathepsin K)/Ki(calpain)<30. • The “Sel. cat. L” column indicates the Ki(cathepsin L)/Ki(calpain) ratio. In this connection, ++ means a Ki(cathepsin L)/Ki(calpain) ratio of ≧50 and + means 30≦Ki(cathepsin L)/Ki(calpain)<50. • The “Sel. cat. S” column indicates the Ki(cathepsin S)/Ki(calpain) ratio. In this connection, ++ means a Ki(cathepsin S)/Ki(calpain) ratio of ≧100 and + means 50≦Ki(cathepsin S)/Ki(calpain)<100.

[2] = target: T2, calpain-I isolated from human erythrocytes (Homo sapiens, UniProt P07384); assay: Calpain I kinetic fluorescence enzyme inhibition assay; details: apparent Ki from IC50 by Cheng-Prussoff; average of 2 to 4 dose-effect plots
T2 construct: calpain-I—isolated from human erythrocytes; purchased Calbiochem 208713; host or cells: human erythrocytes (tissue isolate)
T2 sequence (P07384 1-714): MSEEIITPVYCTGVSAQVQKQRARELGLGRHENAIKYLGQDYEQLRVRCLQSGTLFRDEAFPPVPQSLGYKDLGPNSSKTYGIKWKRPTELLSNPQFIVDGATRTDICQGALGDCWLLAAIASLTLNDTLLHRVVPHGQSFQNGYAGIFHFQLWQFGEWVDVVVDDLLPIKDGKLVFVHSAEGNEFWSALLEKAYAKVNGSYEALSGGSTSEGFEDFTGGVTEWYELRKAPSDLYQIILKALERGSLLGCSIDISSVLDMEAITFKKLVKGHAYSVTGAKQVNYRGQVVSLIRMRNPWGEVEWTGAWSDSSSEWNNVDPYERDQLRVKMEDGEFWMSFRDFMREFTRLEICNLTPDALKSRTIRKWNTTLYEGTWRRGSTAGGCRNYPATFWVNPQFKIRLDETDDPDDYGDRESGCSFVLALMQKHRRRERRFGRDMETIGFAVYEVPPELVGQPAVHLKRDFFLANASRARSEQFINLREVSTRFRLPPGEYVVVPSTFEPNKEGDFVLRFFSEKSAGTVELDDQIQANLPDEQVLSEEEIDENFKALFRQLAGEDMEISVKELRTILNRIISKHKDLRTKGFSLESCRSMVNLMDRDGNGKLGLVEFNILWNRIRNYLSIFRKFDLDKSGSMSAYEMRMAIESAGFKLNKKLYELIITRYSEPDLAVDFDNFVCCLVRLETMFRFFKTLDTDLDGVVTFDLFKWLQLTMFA
T2 sequence (P04632 1-268 partner): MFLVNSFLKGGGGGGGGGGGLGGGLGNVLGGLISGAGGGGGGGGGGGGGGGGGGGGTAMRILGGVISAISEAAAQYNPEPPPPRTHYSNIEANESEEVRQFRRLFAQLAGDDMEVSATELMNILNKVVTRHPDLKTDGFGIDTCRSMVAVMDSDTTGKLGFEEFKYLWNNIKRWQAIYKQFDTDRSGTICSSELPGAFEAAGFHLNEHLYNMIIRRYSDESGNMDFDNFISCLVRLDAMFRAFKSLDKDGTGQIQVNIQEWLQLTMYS
Experimental: as §1, §2

[3] = target: T3, recombinant human cathepsin S (Homo sapiens, UniProt P25774); assay: Cathepsin S kinetic fluorescence enzyme inhibition assay; details: selectivity ratio versus calpain I
T3 construct: purchased Calbiochem 219343; host or cells: E. coli
Experimental: as §1, §2

T3 sequence (P25774 115-331): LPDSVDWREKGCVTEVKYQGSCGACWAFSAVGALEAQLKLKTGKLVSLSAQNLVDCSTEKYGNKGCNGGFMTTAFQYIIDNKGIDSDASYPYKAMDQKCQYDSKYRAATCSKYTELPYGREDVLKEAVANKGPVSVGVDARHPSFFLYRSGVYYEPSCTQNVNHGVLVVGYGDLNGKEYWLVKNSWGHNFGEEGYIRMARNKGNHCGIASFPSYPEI
T1 sequence (P07711 114-333): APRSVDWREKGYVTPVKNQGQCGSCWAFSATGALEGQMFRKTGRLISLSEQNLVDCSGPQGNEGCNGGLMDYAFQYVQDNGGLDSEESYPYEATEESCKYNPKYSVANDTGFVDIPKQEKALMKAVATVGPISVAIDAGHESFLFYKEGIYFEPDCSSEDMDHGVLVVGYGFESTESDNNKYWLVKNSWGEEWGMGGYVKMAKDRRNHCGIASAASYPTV

SMILES: CCCCC(NC(=O)c1cccnc1-n1cnc(-c2ccccc2)c1)C(=O)C(N)=O (centres unmarked) [Example 2, N-{1-[Amino(oxo)acetyl]pentyl}-2-(4-phenyl-1H-imidazol-1-yl)nicotinamide]
- Sel cat. L (Ki(cathepsin L)/Ki(calpain) ratio) [1]: ++ (Ki(cathepsin L)/Ki(calpain) ratio of ≧50)
- Ki [2]: ≤ 40 nM

SMILES: CCN(CC)c1ccc(-c2ccn(-c3ncccc3C(=O)NC(Cc3ccccc3)C(=O)C(N)=O)n2)cc1 (centres unmarked) [Example 42, N-(3-Amino-1-benzyl-2,3-dioxopropyl)-2-{3-[4-(diethylamino)phenyl]-1H-pyrazol-1-yl}nicotinamide]
- Ki [2]: ≤ 40 nM
- Sel cat. S (Ki(cathepsin S)/Ki(calpain) ratio) [3]: ++ (Ki(cathepsin S)/Ki(calpain) ratio of ≧100)

SMILES: CCN(CC)Cc1ccc(-c2ccn(-c3ncccc3C(=O)NC(Cc3ccccc3)C(=O)C(N)=O)n2)cc1.Cl (centres unmarked) [Example 43, N-(3-Amino-1-benzyl-2,3-dioxopropyl)-2-(3-{4-[(diethylamino)methyl]phenyl}-1H-pyrazol-1-yl)nicotinamide hydrochloride]
- Ki [2]: 40 to 100 nM
- Sel cat. S (Ki(cathepsin S)/Ki(calpain) ratio) [3]: ++ (Ki(cathepsin S)/Ki(calpain) ratio of ≧100)

SMILES: CCCCC(NC(=O)c1cccnc1-n1ccc(-c2ccc(CN(CC)CC)cc2)n1)C(=O)C(N)=O (centres unmarked) [Example 44, N-{1-[Amino(oxo)acetyl]pentyl}-2-(3-{4-[(diethylamino)methyl]phenyl}-1H-pyrazol-1-yl)nicotinamide]
- Ki [2]: ≤ 40 nM
- Sel cat. S (Ki(cathepsin S)/Ki(calpain) ratio) [3]: + (50≦Ki(cathepsin S)/Ki(calpain)<100)

SMILES: CCCCC(NC(=O)c1cccnc1-n1ccc(-c2ccc(CN3CCOCC3)cc2)n1)C(=O)C(N)=O (centres unmarked) [Example 45, N-{1-[Amino(oxo)acetyl]pentyl}-2-{3-[4-(morpholin-4-ylmethyl)phenyl]-1H-pyrazol-1-yl}nicotinamide]
- Ki [2]: ≤ 40 nM
- Sel cat. S (Ki(cathepsin S)/Ki(calpain) ratio) [3]: + (50≦Ki(cathepsin S)/Ki(calpain)<100)

SMILES: NC(=O)C(=O)C(Cc1ccccc1)NC(=O)c1cccnc1-n1ccc(-c2ccc(CN3CCOCC3)cc2)n1 (centres unmarked) [Example 46, N-(3-Amino-1-benzyl-2,3-dioxopropyl)-2-{3-[4-(morpholin-4-ylmethyl)phenyl]-1H-pyrazol-1-yl}nicotinamide]
- Ki [2]: 40 to 100 nM
- Sel cat. S (Ki(cathepsin S)/Ki(calpain) ratio) [3]: ++ (Ki(cathepsin S)/Ki(calpain) ratio of ≧100)

SMILES: CCCCC(NC(=O)c1cccnc1-n1ccc(-c2ccc(N(CC)CC)cc2)n1)C(=O)C(N)=O (centres unmarked) [Example 47, N-{1-[Amino(oxo)acetyl]pentyl}-2-{3-[4-(diethylamino)phenyl]-1H-pyrazol-1-yl}nicotinamide]
- Ki [2]: ≤ 40 nM
- Sel cat. S (Ki(cathepsin S)/Ki(calpain) ratio) [3]: ++ (Ki(cathepsin S)/Ki(calpain) ratio of ≧100)

SMILES: Cl.NC(=O)C(=O)C(Cc1ccccc1)NC(=O)c1cccnc1-n1ccc(-c2cccc(CN3CCOCC3)c2)n1 (centres unmarked) [Example 52, N-(3-Amino-1-benzyl-2,3-dioxopropyl)-2-{3-[3-(morpholin-4-ylmethyl)phenyl]-1H-pyrazol-1-yl}nicotinamide hydrochloride]
- Ki [2]: 40 to 100 nM
- Sel cat. S (Ki(cathepsin S)/Ki(calpain) ratio) [3]: ++ (Ki(cathepsin S)/Ki(calpain) ratio of ≧100)

SMILES: NC(=O)C(=O)C(Cc1ccccc1)NC(=O)c1cccnc1-n1ccc(-c2ccc(-n3ccnc3)cc2)n1 (centres unmarked) [Example 101, N-[3-Amino-2,3-dioxo-1-(phenylmethyl)propyl]-2-{3-[4-(1H-imidazol-1-yl)phenyl]-1H-pyrazol-1-yl}pyridine-3-carboxamide]
- Ki [2]: ≤ 40 nM
- Sel cat. S (Ki(cathepsin S)/Ki(calpain) ratio) [3]: ++ (Ki(cathepsin S)/Ki(calpain) ratio of ≧100)

SMILES: NC(=O)C(=O)C(Cc1ccccc1)NC(=O)c1cccnc1-n1cc(-c2ccccc2F)cn1 (centres unmarked) [Example 104, N-[3-Amino-2,3-dioxo-1-(phenylmethyl)propyl]-2-[4-(2-fluorophenyl)-1H-pyrazol-1-yl]pyridine-3-carboxamide]
- Ki [2]: ≤ 40 nM
- Sel cat. S (Ki(cathepsin S)/Ki(calpain) ratio) [3]: + (50≦Ki(cathepsin S)/Ki(calpain)<100)

SMILES: NC(=O)C(=O)C(Cc1ccccc1)NC(=O)c1cccnc1-n1cc(CCN2CCOCC2)c(-c2ccc(F)cc2)n1 (centres unmarked) [Example 165, N-[3-Amino-2,3-dioxo-1-(phenylmethyl)propyl]-2-[3-(4-fluorophenyl)-4-(2-morpholin-4-ylethyl)-1H-pyrazol-1-yl]pyridine-3-carboxamide]
- Ki [2]: 40 to 100 nM
- Sel cat. S (Ki(cathepsin S)/Ki(calpain) ratio) [3]: ++ (Ki(cathepsin S)/Ki(calpain) ratio of ≧100)

SMILES: NC(=O)C(=O)C(Cc1ccccc1)NC(=O)c1cccnc1-n1cc(CN2CCOCC2)c(-c2cccc(C(F)(F)F)c2)n1 (centres unmarked) [Example 177, N-[3-Amino-2,3-dioxo-1-(phenylmethyl)propyl]-2-{4-(morpholin-4-ylmethyl)-3-[3-(trifluoromethyl)phenyl]-1H-pyrazol-1-yl}pyridine-3-carboxamide]
- Ki [2]: 40 to 100 nM
- Sel cat. S (Ki(cathepsin S)/Ki(calpain) ratio) [3]: ++ (Ki(cathepsin S)/Ki(calpain) ratio of ≧100)

SMILES: NC(=O)C(=O)C(Cc1ccccc1)NC(=O)c1cccnc1-n1cc(CN2CCCC2)c(-c2cccc(C(F)(F)F)c2)n1 (centres unmarked) [Example 178, N-[3-Amino-2,3-dioxo-1-(phenylmethyl)propyl]-2-{4-(pyrrolidin-1-ylmethyl)-3-[3-(trifluoromethyl)phenyl]-1H-pyrazol-1-yl}pyridine-3-carboxamide]
- Ki [2]: 40 to 100 nM
- Sel cat. S (Ki(cathepsin S)/Ki(calpain) ratio) [3]: ++ (Ki(cathepsin S)/Ki(calpain) ratio of ≧100)
